The numbers were not newly measured in US10688072B2, “Misoprostol dispersible tablet” (Azanta Danmark A/S, priority 2014, dated 2020), which cites them from elsewhere.

Structures are written as SMILES. Read-outs that look alike come from different tables or passages of the source.

For this series the following is noted: 400 μg.

With `CCCCC(C)(O)C/C=C/[C@H]1[C@H](O)CC(=O)[C@@H]1CCCCCCC(=O)OC` (mixture of isomers) [misoprostol], the “Peak in plasma concentration” value is “larger peak than vaginal administration” (oral administration compared with vaginal); “larger peak in plasma concentration of misoprostol than oral and vaginal” (sublingual administration compared with oral and vaginal). The “Inter-subject variability in % at peak concentration” value is, setting by setting: (oral route compared with vaginal) “smaller than for vaginal application”; (sublingual route compared with oral and vaginal) “smaller following the sublingual route of administration than for oral and vaginal application”.
